Data published in patent publication US5679680A, “α-substituted hydrazides having calpain inhibitory activity” (Warner-Lambert Company, priority 1995, dated 1997).
Blank lines part the entries; values can stand above or below the molecule they belong to. Square brackets hold non-standard residues; d marks the D form. Ends that are not written are not given here. Peptide text beside a SMILES is read from it. Nle = CCCC[C@H](N)C(=O)O

Legend:
Human Calpain I = target: T1, Human Calpain I (Homo sapiens, UniProt P07384); test: Calpain I activity, casein substrate, Coomassie microplate assay; type: biochemical; settings: for IC50: casein 0.5 mg/mL, pH 7.4, 25° C., 60 minutes (Table I)
T1 construct: Calpain I was purified from human erythrocytes; from tissue; host or cells: human erythrocytes
T1 sequence (P07384 1-714): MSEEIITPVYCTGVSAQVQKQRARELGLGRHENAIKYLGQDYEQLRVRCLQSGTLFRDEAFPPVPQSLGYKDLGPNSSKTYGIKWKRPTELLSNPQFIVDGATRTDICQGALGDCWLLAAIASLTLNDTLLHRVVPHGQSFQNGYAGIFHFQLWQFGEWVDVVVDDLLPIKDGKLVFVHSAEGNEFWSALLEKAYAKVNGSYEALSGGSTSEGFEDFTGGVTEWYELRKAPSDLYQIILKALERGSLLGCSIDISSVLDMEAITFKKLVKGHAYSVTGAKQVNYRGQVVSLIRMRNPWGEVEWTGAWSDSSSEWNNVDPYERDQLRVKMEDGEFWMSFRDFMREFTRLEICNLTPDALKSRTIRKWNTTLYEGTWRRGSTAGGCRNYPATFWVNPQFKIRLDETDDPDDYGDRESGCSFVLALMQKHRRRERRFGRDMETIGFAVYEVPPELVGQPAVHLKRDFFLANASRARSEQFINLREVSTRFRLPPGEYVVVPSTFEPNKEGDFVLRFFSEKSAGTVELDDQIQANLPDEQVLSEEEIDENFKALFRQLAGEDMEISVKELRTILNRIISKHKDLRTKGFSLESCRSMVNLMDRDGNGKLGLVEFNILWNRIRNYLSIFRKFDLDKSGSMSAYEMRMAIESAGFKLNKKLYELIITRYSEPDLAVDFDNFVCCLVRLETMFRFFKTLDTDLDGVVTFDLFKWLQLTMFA
T1 sequence (P04632 1-268 partner): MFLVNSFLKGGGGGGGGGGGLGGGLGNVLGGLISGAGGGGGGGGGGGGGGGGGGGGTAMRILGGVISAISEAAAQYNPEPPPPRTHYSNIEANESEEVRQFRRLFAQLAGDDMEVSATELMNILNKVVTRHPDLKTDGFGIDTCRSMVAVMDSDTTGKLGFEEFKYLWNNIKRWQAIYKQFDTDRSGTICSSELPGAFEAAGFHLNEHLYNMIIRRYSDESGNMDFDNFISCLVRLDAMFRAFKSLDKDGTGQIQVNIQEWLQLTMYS
Protocol: (§1) Assay of calpain activity: Calpain I was purified from human erythrocytes as described by Wang K K W, Roufogalis B D, and Villalobo A, Arch Biochem Biophys 1988;267: 317-327. Calpain activity was assayed in a 96-well microplate format (Buroker-Kilgore M and Wang K K W, Anal Bio Chem 1993;208: 387-392). In 250 μL of reaction mixture, substrate casein (0.5 mg/mL) was incubated with 0.01 unit (80-120 ng) calpain I, 20 mM dithiothreitol (DTT), 50 mM Tris-HCl (pH 7.4 at 25° C.) and 4 mM CaCl2 at 25° C. for 60 minutes. Two 100-μL aliquots were taken for Coomassie blue G250 binding analysis to quantify the remaining casein.
(§2) Compound concentrations that cause 50% inhibition (IC50) are as shown (Table I). The second rate of inactivation of calpain I for 2 compounds are also shown.
(§3) Selectivity of α-substituted Hydrazides: Calpain I and II were assayed as described in Example 1. One to 2 ng papain (papaya latex, Sigma, P3125), 1.25 μg trypsin (bovine pancreas, Sigma, T8003), 5 μg thermolysin (Bacillus thermoproteolyticus, Sigma, P1512) were assayed using 0.5 mg/mL casein as substrate in the microplate format (250 μL reaction volume), essentially a described by Buroker-Kilgore, M. and Wang K K W, Anal Biochem 1993;208: 387-392. Cathepsin B (0.002 unit, bovine spleen) was assayed with 50 mM MES (pH 5.5), 100 μM carbobenzoxy-Arg-Arg-4-methoxy-beta-naphthlamide (Cbz-Arg-Arg-MNA), inhibitor, and 2 mM DTT in 200 μL for 60 minutes at room temperature. Fifty-microliter aliquots were transferred to a fluorescence-compatible plate and then read with a Perkin-Elmer fluorometer LS-50B (excitation 340 nm and emission 425 nm). Calcineurin (bovine brain, Sigma) (5 μg, 0.8 unit) was assayed with 10 mM p-nitrophenyl phosphate in 1 mM DTT, 1 mM CaCl2, 1 mM MnCl2, […] calmodulin (CaM, if added), and 50 mM Tris-HCl (pH 7.4) at 25° C. for 60 minutes or more. Production of p-nitrophenol was monitored at 405 nm. Inhibition of these proteases are presented as IC50.

Human Calpain II = target: T2, Human Calpain II (Homo sapiens, UniProt P17655); test: Calpain II activity, casein substrate, Coomassie microplate assay; type: biochemical; settings: casein 0.5 mg/mL (Table I)
T2 sequence (P17655 1-700): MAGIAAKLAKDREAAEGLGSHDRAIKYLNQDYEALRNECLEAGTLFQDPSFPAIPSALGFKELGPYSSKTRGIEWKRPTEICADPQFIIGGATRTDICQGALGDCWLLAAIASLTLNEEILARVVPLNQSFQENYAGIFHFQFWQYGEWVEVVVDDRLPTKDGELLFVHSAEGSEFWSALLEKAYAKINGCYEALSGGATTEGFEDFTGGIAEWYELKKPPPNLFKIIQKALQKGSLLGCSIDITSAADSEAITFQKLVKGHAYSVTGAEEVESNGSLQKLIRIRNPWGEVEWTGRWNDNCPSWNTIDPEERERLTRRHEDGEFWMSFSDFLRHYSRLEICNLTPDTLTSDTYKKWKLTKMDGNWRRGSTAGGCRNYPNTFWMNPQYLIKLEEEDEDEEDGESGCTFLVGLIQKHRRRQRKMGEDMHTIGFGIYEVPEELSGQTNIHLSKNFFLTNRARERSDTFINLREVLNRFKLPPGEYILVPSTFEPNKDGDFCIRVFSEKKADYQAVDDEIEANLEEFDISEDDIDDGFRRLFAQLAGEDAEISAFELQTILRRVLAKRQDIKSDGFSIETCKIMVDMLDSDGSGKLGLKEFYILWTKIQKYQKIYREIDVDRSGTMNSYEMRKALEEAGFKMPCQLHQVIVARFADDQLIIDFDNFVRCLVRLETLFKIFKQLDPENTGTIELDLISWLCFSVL
T2 sequence (P04632 1-268 partner): T1 sequence (P04632 1-268 partner)
Protocol: as §1, §2, §3

[1] = test system: Spectrin Breakdown in Human Leukemic Molt-4 cells; test: Cell-based calpain assay: spectrin breakdown in Molt-4 cells treated with calcium ionophore A23187; settings: 1 hour preincubation, 15 μM A23187, 90 minutes, read-out: IC50 for inhibition of spectrin breakdown (145 kD fragment formation)
Protocol: Calpain inhibitor was added to the wells if desired and preincubated for 1 hour. […] The cells were then lysed with 2% (w/v) SDS, 5 mM EGTA, 5 mM EDTA, 150 mM NaCl, 0.5 mM PMSF, 10 μg/mL AEBSF, 5 μg/mL leupeptin, 10 μg/mL pepstatin, 10 μg/mL TLCK, 10 μg/mL TPCK, and 20 mM Tris-HCl (pH 7.4) at room temperature for 5 to 10 minutes. One hundred microliters of 100% (w/v) TCA was added and total protein precipitate was collected by microcentrifugation. The final pellets were neutralized with Tris base. Protein samples (50 μg) were run on SDS-PAGE with the Tris-glycine running buffer system and transferred onto a PVDF membrane. The blots were probed with an anti-spectrin (nonerythroid) antibody and a second antibody with alkaline phosphatase conjugate. The blots were developed with nitro blue tetrazolium and 5-bromo-4-chloro-3-indolyl-phosphate.

platelet = settings: cited from earlier work
aggregin = settings: cited from earlier work
restenosis = settings: in vivo; cited from earlier work
cataract = settings: whole animal; cited from earlier work
ischemic neocortex = settings: applied directly to the surfaces of ischemic neocortex; cited from earlier work
[2] = test system: acute myocardiac infraction in dogs; settings: coronary reperfusion after acute myocardiac infraction; cited from earlier work

IC50 (Human Calpain I): 0.697 µM
IC50 (Human Calpain II): 0.574 µM
IC50 [1]: 25 µM
Molecule: O=C(CBr)NN=c1[nH]c2ccccc2n(-c2ccccc2)c1=O [Example 4, 2-Bromo-acetic acid (3-oxo-4-phenyl-3,4-dihydro-1H-quinoxalin-2-ylidene)-hydrazide]

Molecule: Phe-Gln-Val-Val-Cys(3-nitro-2-thiopyridine)-Gly-NH2 (FQVVC(3‑nitro‑2‑thiopyridine)G-NH2)
Platelet aggregation (platelet): blocked aggregin breakdown and platelet aggregation
Aggregin breakdown (aggregin): blocked aggregin breakdown

Molecule: CCCC[C@@H](C=O)NC(=O)[C@H](CC(C)C)NC(=O)[C@H](CC(C)C)NC(C)=O [calpain inhibitor I] (Ac-Leu-Leu-[Nle]-aldehyde)
Restenosis (restenosis): can inhibit restenosis

Molecule: CC(C)C[C@H](NC(=O)[C@H]1O[C@@H]1C(=O)O)C(=O)NCCCCN=C(N)N [Example E64]
Rate of cataract formation (cataract): reduce the rate of cataract formation

Ki/[I] Calpain I (second rate of inactivation) (Human Calpain I): 63.7 M⁻¹ s⁻¹
IC50 (Human Calpain I): 0.486 µM
IC50 (Human Calpain II): 0.158 µM
IC50 [1]: 15 µM
Molecule: O=C(CCl)NN=c1[nH]c2ccccc2n(-c2ccc(Cl)cc2)c1=O [Example 9, 2-Chloro-acetic acid [4-(4-chloro-phenyl)-3-oxo-3,4-dihydro-1H-quinoxalin-2-ylidene]-hydrazide]

Molecule: CCNC(=O)C(=O)C(CC)NC(=O)C(CC(C)C)NC(=O)OCc1ccccc1 (stereo not drawn) [AK275]
Size of the expected infarct (ischemic neocortex): dramatically and unequivocally reduce the size of the expected infarct

Molecule: CC(C)CCNC(=O)[C@H](CC(C)C)NC(=O)[C@H]1O[C@@H]1C(=O)O [Example E64c]
Size of infarct [2]: significantly reduce the size of infract

IC50 (Human Calpain I): 8.28 µM
IC50 (Human Calpain II): 10.8 µM
Molecule: Cn1c(=O)c(=NNC(=O)CCl)[nH]c2ccccc21 [Example 14, 2-Chloro-acetic acid (4-methyl-3-oxo-3,4-dihydro-1H-quinoxalin-3-ylidene)-hydrazide]
